Measured values as given in PubChem BioAssay AID330 (DTP/NCI, 2004).
Values joined by “and” are separate entries in the source; they are usually repeats but may differ in a detail not shown here. Identical values can stand only once. Inconclusive results and toxic doses are left out. The calls were made as follows: active = survival T/C of 150% or more; inactive = T/C below 125% in these data.

System: P388 leukemia ip, CD2F1 mice, survival T/C
Test: NCI In Vivo Anticancer Drug Screen. Data for tumor model P388 Leukemia (intraperitoneal) in CD2F1 (CDF1) mice
Conditions: endpoint: median survival time, higher = longer survival
Procedure, shortened: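 Mice carrying the transplanted tumor received test compound or vehicle. Survival was recorded in each group, and the value is the treated-group measurement divided by that of the vehicle-treated control group.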

[1] = dose: 25.0 mg/kg/injection, schedule: Q04DX003 (ip), vehicle: Klucel (hydroxypropylcellulose) (HPC)
[2] = dose: 50.0 mg/kg/injection, schedule: Q04DX003 (ip), vehicle: Klucel (hydroxypropylcellulose) (HPC)
[3] = dose: 12.5 mg/kg/injection, schedule: Q01DX009 (ip), vehicle: saline
[4] = dose: 25.0 mg/kg/injection, schedule: Q01DX009 (ip), vehicle: saline
[5] = dose: 50.0 mg/kg/injection, schedule: Q01DX009 (ip), vehicle: saline
[6] = dose: 50.0 mg/kg/injection, schedule: Q01DX005 (ip), vehicle: saline with Tween-80
[7] = dose: 100.0 mg/kg/injection, schedule: Q01DX005 (ip), vehicle: saline with Tween-80
[8] = dose: 200.0 mg/kg/injection, schedule: Q01DX005 (ip), vehicle: saline with Tween-80
[9] = dose: 60.0 mg/kg/injection, schedule: Q01DX005 (ip), vehicle: saline
[10] = dose: 120.0 mg/kg/injection, schedule: Q01DX005 (ip), vehicle: saline
[11] = dose: 240.0 mg/kg/injection, schedule: Q01DX005 (ip), vehicle: saline
[12] = dose: 50.0 mg/kg/injection, schedule: Q01DX009 (ip), vehicle: saline sonified
[13] = dose: 60.0 mg/kg/injection, schedule: Q01DX005 (ip), vehicle: Klucel (hydroxypropylcellulose) (HPC)
[14] = dose: 120.0 mg/kg/injection, schedule: Q01DX005 (ip), vehicle: Klucel (hydroxypropylcellulose) (HPC)
[15] = dose: 60.0 mg/kg/injection, schedule: Q01DX005 (ip), vehicle: saline with Tween-80
[16] = dose: 120.0 mg/kg/injection, schedule: Q01DX005 (ip), vehicle: saline with Tween-80
[17] = dose: 240.0 mg/kg/injection, schedule: Q01DX005 (ip), vehicle: saline with Tween-80
[18] = dose: 100.0 mg/kg/injection, schedule: Q04DX002 (ip), vehicle: Klucel (hydroxypropylcellulose) (HPC)
[19] = dose: 200.0 mg/kg/injection, schedule: Q04DX002 (ip), vehicle: Klucel (hydroxypropylcellulose) (HPC)
[20] = dose: 400.0 mg/kg/injection, schedule: Q04DX002 (ip), vehicle: Klucel (hydroxypropylcellulose) (HPC)

Measured: T/C

[Cl][Cu][Cl]
inactive: dose: 3.13 mg/kg/injection, schedule: Q04DX003 (ip), vehicle: saline 90 % of control | dose: 6.25 mg/kg/injection, schedule: Q04DX003 (ip), vehicle: saline 104 % of control

C/C(=N\NC(N)=S)c1ccc2c(c1)Cc1cc(/C(C)=N/NC(N)=S)ccc1-2
inactive: dose: 25.0 mg/kg/injection, schedule: Q04DX002 (ip), vehicle: saline with Tween-80 99 % of control | dose: 50.0 mg/kg/injection, schedule: Q04DX002 (ip), vehicle: saline with Tween-80 92 % of control | dose: 100.0 mg/kg/injection, schedule: Q04DX002 (ip), vehicle: saline with Tween-80 93 % of control | dose: 200.0 mg/kg/injection, schedule: Q04DX002 (ip), vehicle: saline with Tween-80 95 % of control

O=c1n(-c2ccccc2)c(=O)n2n1C1C=CC2C2C3OC3C21 (configuration not stated)
inactive: dose: 12.5 mg/kg/injection, schedule: Q04DX003 (ip), vehicle: Klucel (hydroxypropylcellulose) (HPC) 100 % of control | [1] 101 % of control | [2] 108 % of control

Cc1nc(N)c2ncn(C3OC(CO)C(O)C3O)c2n1 (configuration not stated)
inactive: dose: 6.25 mg/kg/injection, schedule: Q01DX009 (ip), vehicle: saline 100 % of control | [3] 106 % of control | [4] 109 % of control | [5] 112 % of control

Cc1cc(=O)n(-c2ccc(-c3ccc(-n4c(C)c(C(=O)O)c(C)cc4=O)cc3)cc2)c(C)c1C(=O)O
inactive: [6] 102 % of control | [7] 100 % of control | [8] 106 % of control

CCCOC(=O)C1(N)CCCC1
inactive: dose: 100.0 mg/kg/injection, schedule: Q04DX003 (ip), vehicle: saline 100 % of control | dose: 200.0 mg/kg/injection, schedule: Q04DX003 (ip), vehicle: saline 113 % of control | dose: 400.0 mg/kg/injection, schedule: Q04DX003 (ip), vehicle: saline 118 % of control

Cc1nc(Sc2nc3ccc([N+](=O)[O-])cc3s2)sc1C
inactive: [5] 87 % of control | dose: 100.0 mg/kg/injection, schedule: Q01DX009 (ip), vehicle: saline 96 % of control | dose: 200.0 mg/kg/injection, schedule: Q01DX009 (ip), vehicle: saline 105 % of control | dose: 400.0 mg/kg/injection, schedule: Q01DX009 (ip), vehicle: saline 96 % of control

C=C1C(=O)OC(CCCCCCCCCCCCCC(C)=O)[C@H]1C(=O)O (some centres not stated)
inactive: dose: 5.0 mg/kg/injection, schedule: Q01DX005 (ip), vehicle: Klucel (hydroxypropylcellulose) (HPC) 93 % of control | dose: 5.0 mg/kg/injection, schedule: Q01DX005 (ip), vehicle: saline 93 % of control | dose: 10.0 mg/kg/injection, schedule: Q01DX005 (ip), vehicle: Klucel (hydroxypropylcellulose) (HPC) 90 % of control | dose: 10.0 mg/kg/injection, schedule: Q01DX005 (ip), vehicle: saline 91 % of control | dose: 20.0 mg/kg/injection, schedule: Q01DX005 (ip), vehicle: Klucel (hydroxypropylcellulose) (HPC) 110 % of control and 90 % of control and 107 % of control | dose: 20.0 mg/kg/injection, schedule: Q01DX005 (ip), vehicle: saline 96 % of control | dose: 40.0 mg/kg/injection, schedule: Q01DX005 (ip), vehicle: Klucel (hydroxypropylcellulose) (HPC) 105 % of control and 98 % of control | dose: 80.0 mg/kg/injection, schedule: Q01DX005 (ip), vehicle: Klucel (hydroxypropylcellulose) (HPC) 107 % of control

CC1C(O)=C(c2ccccc2)P(=O)(Cc2ccccc2)C1C (configuration not stated)
inactive: [9] 101 % of control | [10] 100 % of control | [11] 93 % of control

CC(C)(CCC(=O)O)C(=O)O
inactive: [12] 91 % of control | dose: 200.0 mg/kg/injection, schedule: Q01DX009 (ip), vehicle: saline sonified 87 % of control

O=C(O)C(Cc1ccsc1)NC(=O)C(F)(F)F (configuration not stated)
inactive: dose: 50.0 mg/kg/injection, schedule: Q01DX009 (ip), vehicle: saline + alcohol 94 % of control | dose: 100.0 mg/kg/injection, schedule: Q01DX009 (ip), vehicle: saline + alcohol 99 % of control | dose: 200.0 mg/kg/injection, schedule: Q01DX009 (ip), vehicle: saline + alcohol 98 % of control

c1ccc2c(SCCSc3c4ccccc4nc4ccccc34)c3ccccc3nc2c1
inactive: [13] 90 % of control | [14] 96 % of control

COc1ccc(C(=O)c2[nH]ncc2Nc2ccccc2)cc1
inactive: [13] 97 % of control | [14] 117 % of control | dose: 240.0 mg/kg/injection, schedule: Q01DX005 (ip), vehicle: Klucel (hydroxypropylcellulose) (HPC) 91 % of control

Cc1ncc(CNC(=O)NCCCl)c(N)n1
inactive: dose: 50.0 mg/kg/injection, schedule: Q01DX009 (ip), vehicle: Klucel (hydroxypropylcellulose) (HPC) 102 % of control | dose: 100.0 mg/kg/injection, schedule: Q01DX009 (ip), vehicle: Klucel (hydroxypropylcellulose) (HPC) 103 % of control | dose: 200.0 mg/kg/injection, schedule: Q01DX009 (ip), vehicle: Klucel (hydroxypropylcellulose) (HPC) 108 % of control

CN(C)c1ccc(C(=O)C2(O)CCCC(C)(C)C2)cc1 (configuration not stated)
inactive: dose: 100.0 mg/kg/injection, schedule: Q01DX001 (ip), vehicle: Klucel (hydroxypropylcellulose) (HPC) 103 % of control | dose: 200.0 mg/kg/injection, schedule: Q01DX001 (ip), vehicle: Klucel (hydroxypropylcellulose) (HPC) 101 % of control | dose: 400.0 mg/kg/injection, schedule: Q01DX001 (ip), vehicle: Klucel (hydroxypropylcellulose) (HPC) 101 % of control

O/N=C/C(=Nc1ccccc1N=C(/C=N/O)NO)NO
inactive: [15] 95 % of control | [16] 103 % of control | [17] 94 % of control

CCCC1(c2ccccc2)CCCC(C#N)C1=O (configuration not stated)
inactive: [18] 104 % of control | [19] 107 % of control | [20] 106 % of control

COc1cccc(C(c2cc3c(cc2O)OCO3)N2CCN(C(c3cc4c(cc3O)OCO4)c3cccc(OC)c3O)CC2)c1O (configuration not stated)
inactive: [9] 98 % of control | [10] 98 % of control | [11] 100 % of control

Cc1cc(=O)oc2c3c(c4c(c12)OC(C)(C)C=C4)OC(C)(C)C=C3
inactive: [15] 89 % of control | [16] 88 % of control

CC(C(=O)S)C(O)(c1ccccc1)c1ccccc1 (configuration not stated)
inactive: [1] 98 % of control | [2] 101 % of control | dose: 100.0 mg/kg/injection, schedule: Q04DX003 (ip), vehicle: Klucel (hydroxypropylcellulose) (HPC) 107 % of control and 93 % of control

O=C1CS/C(=N/C(=O)Nc2ccc(Cl)cc2)N1
inactive: dose: 25.0 mg/kg/injection, schedule: Q04DX002 (ip), vehicle: Klucel (hydroxypropylcellulose) (HPC) 90 % of control | dose: 50.0 mg/kg/injection, schedule: Q04DX002 (ip), vehicle: Klucel (hydroxypropylcellulose) (HPC) 88 % of control | [18] 91 % of control | [19] 95 % of control | [20] 87 % of control

COc1ccc2c(c1C)CN1CCc3cc4c(cc3C1=C2)OCO4
inactive: [15] 99 % of control | [16] 117 % of control | [17] 100 % of control

O=C(Nc1ccccc1-c1ccccc1)c1ccc2c(c1)OCO2
inactive: [6] 97 % of control | [7] 111 % of control | [8] 97 % of control

Nc1ccccc1C(=O)NCCc1c[nH]c2ccccc12
inactive: [6] 99 % of control | [7] 107 % of control | [8] 107 % of control

O=C(O)c1ccccc1C(=O)O.[Cu+2].[NH-]CC[NH-]
inactive: dose: 1.25 mg/kg/injection, schedule: Q04DX002 (ip), vehicle: saline with Tween-80 100 % of control | dose: 2.5 mg/kg/injection, schedule: Q04DX002 (ip), vehicle: saline with Tween-80 99 % of control | dose: 5.0 mg/kg/injection, schedule: Q04DX002 (ip), vehicle: saline with Tween-80 98 % of control

COc1cc2c(cc1OC)C(CCN)=NCC2
inactive: dose: 25.0 mg/kg/injection, schedule: Q01DX009 (ip), vehicle: saline sonified 95 % of control | [12] 100 % of control | dose: 100.0 mg/kg/injection, schedule: Q01DX009 (ip), vehicle: saline sonified 100 % of control

CC(C)[N+](C)(C)CC(O)COc1ccccc1-c1ccccc1 (configuration not stated)
inactive: [3] 100 % of control | [4] 98 % of control | [5] 93 % of control and 97 % of control
